Target: T1, FIP1L1-PDGFRα (Homo sapiens, UniProt P16234, T674I, form not given)
T1 construct: gene PDGFRA; with Pre-mRNA 3'-end-processing factor FIP1
Format: cell-based
Conditions: 24 h, 1000 nM, positive control; gatekeeper mutant; stated gain (imatinib resistance)

T1 sequence (P16234 550-1089 T674I limits assumed, form open): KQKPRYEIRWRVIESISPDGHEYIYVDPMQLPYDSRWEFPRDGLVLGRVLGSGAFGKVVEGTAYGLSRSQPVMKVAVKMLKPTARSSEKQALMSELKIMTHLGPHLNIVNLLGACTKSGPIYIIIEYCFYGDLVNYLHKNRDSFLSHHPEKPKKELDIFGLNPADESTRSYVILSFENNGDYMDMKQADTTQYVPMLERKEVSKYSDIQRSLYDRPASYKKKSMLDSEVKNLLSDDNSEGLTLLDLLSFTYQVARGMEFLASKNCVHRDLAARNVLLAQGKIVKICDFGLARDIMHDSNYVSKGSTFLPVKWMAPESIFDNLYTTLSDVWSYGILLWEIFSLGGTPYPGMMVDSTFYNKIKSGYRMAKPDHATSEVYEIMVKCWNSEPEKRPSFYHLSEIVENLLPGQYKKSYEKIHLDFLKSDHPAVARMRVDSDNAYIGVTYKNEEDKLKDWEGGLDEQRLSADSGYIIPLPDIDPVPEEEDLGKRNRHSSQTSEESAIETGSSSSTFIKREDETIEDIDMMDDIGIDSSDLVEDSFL
T1 sequence (Q6UN15 whole entry partner, form open): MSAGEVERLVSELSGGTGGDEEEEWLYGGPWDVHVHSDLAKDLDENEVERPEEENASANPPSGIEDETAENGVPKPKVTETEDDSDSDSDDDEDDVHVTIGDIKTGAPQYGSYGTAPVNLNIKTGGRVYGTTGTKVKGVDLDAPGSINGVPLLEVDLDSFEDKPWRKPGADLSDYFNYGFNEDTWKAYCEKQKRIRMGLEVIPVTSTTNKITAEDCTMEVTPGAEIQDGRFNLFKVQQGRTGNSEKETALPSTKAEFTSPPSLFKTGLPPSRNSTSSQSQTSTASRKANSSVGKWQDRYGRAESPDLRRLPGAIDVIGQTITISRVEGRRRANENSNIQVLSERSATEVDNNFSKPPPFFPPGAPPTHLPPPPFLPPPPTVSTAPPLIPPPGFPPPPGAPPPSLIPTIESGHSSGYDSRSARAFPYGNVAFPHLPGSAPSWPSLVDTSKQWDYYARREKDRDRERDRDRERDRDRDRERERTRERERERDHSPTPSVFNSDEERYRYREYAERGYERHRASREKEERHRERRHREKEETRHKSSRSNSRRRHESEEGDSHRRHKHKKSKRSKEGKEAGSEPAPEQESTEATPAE

## CNC(=O)c1cc(Oc2ccc(NC(=O)Nc3ccc(Cl)c(C(F)(F)F)c3)cc2)ccn1 [sorafenib]
  immunoblot of phospho-PDGFRα (Y1018) in BaF3 cells: The phosphorylation of T674I FIP1L1-PDGFRα was altered by sorafenib but not imatinib
